Each structure is given as a SMILES string.

The target of one data set is Glutamate NMDA receptor. Put plainly: Displacement of [3H]DCKA at N-methyl-D-aspartate glutamate receptor 1. Type of data set: protein-complex assay, Rattus norvegicus. (In general: In a radioligand displacement assay an active substance lowers the binding of a labelled ligand.)
Data set [1] has as its target Glutamate receptor ionotropic, kainate. Put plainly: Displacement of [3H]kainate from rat brain cortical membrane Ionotropic glutamate receptor kainate.
Data set [2] has as its target T1, Glutamate receptor ionotropic, AMPA (Rattus norvegicus, UniProt P19490+P19491+P19492+P19493).
Description: Binding affinity in rat brain cortical membranes by the displacement of [3H]AMPA at Ionotropic glutamate receptor AMPA
The nature of data set [3]: Partition coefficient determined using octanol versus pH 7.4 buffer. Type of data set: physicochemical. Particulars: octanol/pH 7.4 buffer.
For data set [4], the species on record is Mus musculus. Put plainly: Anticonvulsant activity tested in mouse. Type of data set: functional.
The next data set has as its system Rattus norvegicus. Nature of the data set: Reduction in cortical infarct volume when 20 mg/kg administarted Iv bolus followed by 14 mg/kg /h IV infusion for 22 hr in rat peramanent middle cerebral artery (MCA). Type of data set: functional.
Data set [5] deals with Glutamate receptor ionotropic, AMPA (Rattus norvegicus) (UniProt P19491+P19492+P19493+P19490). Nature of the data set: Inhibition of Ionotropic glutamate receptor AMPA was measured in oocytes expressing rat cerebral cortex poly (A)+ RNA. Type of data set: functional, cell-based. To be noted: Oocyte.
For data set [6], the target named is Glutamate receptor ionotropic, NMDA 1 (Rattus norvegicus) (UniProt P35439). Put plainly: Inhibition of NMDA/glycine receptors was measured in oocytes expressing the cloned rat NMDA receptor subunit combination NR1A/2C. Type of data set: functional, cell-based. To be noted: Oocyte.
Data set [7] is described as follows: The steady state selectivity index for inhibition of NMDA/glycine receptors was estimated by dividing Kb (AMPA) by Kb (NMDA/glycine).
The species named for data set [8] is Mus musculus. Nature of the data set: Mouse maximum electroshock induced test seizure test in mice. Type of data set: functional.
The target in data set [9] is T2, Glutamate receptor ionotropic, NMDA 1 (Rattus norvegicus, UniProt P35439). Put plainly: Binding affinity in rat brain cortical membranes by the displacement of [3H]- DCKA at N-methyl-D-aspartate glutamate receptor 1. Type of data set: cell membranes.
Data set [10] relates to Mus musculus. Nature of the data set: Antinociceptive activity in mouse tail flick test, when administered intrathecally. Type of data set: functional. (In hot-plate and tail-flick tests a longer latency is read as antinociception.)
Data set [11] concerns the target Glutamate receptor ionotropic, NMDA 1 (Rattus norvegicus) (UniProt P35439). Nature of the data set: Inhibition of N-methyl-D-aspartate glutamate receptor 1 was measured in oocytes expressing the cloned rat NMDA receptor subunit combination NR1A/2C. Type of data set: functional, cell-based. To be noted: Oocyte.
In data set [12] the test system is Mus musculus. Nature of the data set: Antinociceptive activity of tail flick test in mice, when administarted intrathecally. Type of data set: functional.
The target of data set [13] is T1, Glutamate receptor ionotropic, AMPA. Put plainly: Inhibition of binding of [3H]AMPA to Ionotropic glutamate receptor AMPA in rat brain membrane. Type of data set: cell membranes.
Data set [14] addresses T2, Glutamate receptor ionotropic, NMDA 1. Nature of the data set: Inhibition of binding of [3H]DCKA to N-methyl-D-aspartate glutamate receptor 1 in rat brain membrane. Type of data set: cell membranes.

Consider `Oc1nc2cc(Br)cnc2nc1O`, for which the IC50 on Glutamate NMDA receptor amounted to 4.1 µM; in data set [1], 16 µM; in data set [2], 32 µM.

The molecule `O=c1[nH]c2cc(Cl)c(Cl)c([N+](=O)[O-])c2[nH]c1=O` [LICOSTINEL] came in with a logD in data set [3] of 0.21. Moreover, the IC50 on Glutamate NMDA receptor came out at 0.0059 µM; in [2] it was 1.5 µM. The ED50 in the data set listed under Mus musculus [4] worked out at 4 mg/kg.

Regarding `[O-][n+]1cc(Cl)cc2nc(O)c(O)nc21`, the logD in data set [3] was -2.66. For the same molecule, the IC50 at Glutamate NMDA receptor turned out to be 0.82 µM; in data set [1], 5.3 µM; in data set [2] it was 9.9 µM. This molecule also came in with an ED50 in the data set listed under Mus musculus [4] of 0.82 mg/kg. In the data set with Rattus norvegicus, this molecule registered a Reduction of 67%. Besides, the values for the Kb in data set [5] and in [6] were 3.9 µM and 0.63 µM, respectively. Also, the Selectivity index in data set [7] is 6.2.

`CN1CCc2c([N+](=O)[O-])cc3[nH]c(=O)c(=O)[nH]c3c2C1`: the IC50 at Glutamate NMDA receptor came to 0.37 µM; in data set [1] it was 0.36 µM. Also, the ED50 in the data set listed under Mus musculus [8] was determined as 0.44 mg/kg.

In data set [3], `O=c1[nH]c2cc([N+](=O)[O-])c[n+]([O-])c2[nH]c1=O` yielded a logD of -3.31. Besides, the IC50 came to 0.69 µM in [9], 2.4 µM in [1] and 1.3 µM in data set [2]. Also, the values for the ED50 with Mus musculus [10] and in the data set filed under Mus musculus [4] were 2.6 ug mouse-1 and 4.6 mg/kg, respectively.

In data set [3], `O=[N+]([O-])c1cnc2nc(O)c(O)nc2c1` displayed a logD of -0.97. Besides, the IC50 amounted to 1.1 µM at Glutamate NMDA receptor, 4.4 µM in data set [1] and 3.3 µM in data set [2]. The molecule further gave an ED50 in the data set filed under Mus musculus [4] of 4.5 mg/kg. The values for the Kb in [11] and in data set [5] were 0.43 µM and 1.4 µM, respectively.

Regarding `O=[N+]([O-])c1ccc2nc(O)c(O)nc2c1`, the IC50 at Glutamate NMDA receptor was 3.8 µM; in data set [1], 15 µM; in data set [2], 7.7 µM.

For `NS(=O)(=O)c1cccc2c1c([N+](=O)[O-])cc1nc(O)c(O)nc12` [NBQX], the values for the ED50 in the data set on Mus musculus [12] and in the data set filed under Mus musculus [8] were 1.6 ug mouse-1 and 13.1 mg/kg, respectively.

In the case of `O=[N+]([O-])c1ccc2cc(NS(=O)(=O)C(F)(F)F)c(O)nc2c1`, the IC50 in data set [13] came to 0.63 µM; in [14], 0.62 µM.

In the case of `Oc1nc2cc(C(F)(F)F)cnc2nc1O`, the IC50 came to 1.9 µM on Glutamate NMDA receptor, 16 µM in [1] and 18 µM in data set [2].

In data set [3], `O=c1[nH]c2cc(C(F)(F)F)c[n+]([O-])c2[nH]c1=O` gave a logD of -2.35. The IC50 stood at 1.05 µM in data set [9], 7.5 µM in data set [1] and 5.9 µM in [2]. Besides, the ED50 in the data set listed under Mus musculus [4] turned out to be 6.3 mg/kg.

Take `Cc1cc2[nH]c(=O)c(=O)[nH]c2[n+]([O-])c1`: the logD in data set [3] is -2.91. Also, the figures for the IC50 in [9], in data set [1] and in data set [2] were 5.9 µM, 11.9 µM and 14 µM, respectively. Moreover, the ED50 in the data set filed under Mus musculus [4] is 0.97 mg/kg.

Consider `Cc1cnc2nc(O)c(O)nc2c1`, for which the IC50 was determined as 41 µM at Glutamate NMDA receptor, 49 µM in data set [1] and 67 µM in data set [2].

With `O=c1[nH]c2ccc(Cl)cc2[nH]c1=O`, the IC50 in data set [1] and in [2] was 52 µM each time.

In the case of `[O-][n+]1cc(Br)cc2nc(O)c(O)nc21`, in data set [3], the pH-dependent lipophilicity (logD) is -2.48. Also, the values for the IC50 in [9], in data set [1] and in data set [2] were 1 µM, 3.4 µM and 6.7 µM, respectively. Further, the ED50 in the data set listed under Mus musculus [4] was 0.87 mg/kg.

In the case of `Oc1nc2cc(Cl)cnc2nc1O`, the values for the IC50 (on Glutamate NMDA receptor; in data set [1]; in data set [2]) were 2.2 µM, 22 µM and 38 µM, respectively.

For the molecule `O=C1Nc2cc(Cl)ccc2CC1[N+](=O)[O-]` (configuration not stated), the results for the Kb in [11] and in data set [5] were 6.7 µM and 9.2 µM, respectively.

For orientation: IC50 means the concentration at which inhibition is half-maximal. A high value points to lower potency. Usually logD stands for the decadic logarithm of the distribution of all forms, ionised or not, between an organic phase and buffer at a given pH. A high value points to a more lipophilic compound.

(Values after ChEMBL document CHEMBL1130224, “5-(N-oxyaza)-7-substituted-1,4-dihydroquinoxaline-2,3-diones: novel, systemically active and broad spectrum antagonists for NMDA/glycine, AMPA, and kainate receptors” (J Med Chem, 1997).)
